The values below come from PubChem BioAssay AID1259411 (Chemical Carcinogenesis Research Information System (CCRIS), 2018).

The test system of this data set is rodent carcinogenicity bioassays, tumor incidence. Description: CCRIS carcinogenicity studies. In outline:
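Archive of carcinogenicity, mutagenicity, tumor promotion and tumor inhibition results drawn from journals, NCI reports and other sources, expert-reviewed; covers 1985-2011 and is no longer updated.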

SMILES strings stand for the structures. Active and inactive are the calls of the source. The rule behind the calls is not given here.

`Nc1ccc(/C=C/c2ccc(N)c(S(=O)(=O)O)c2)c(S(=O)(=O)O)c1`: the carcinogen call (Species: MOUSE, Strain/Sex: B6C3F1/FEMALE, Route: ORAL, Dose: 0, 6250, 12500 PPM IN DIET FOR 103 WK (STUDY DURATION: 2 YR), Dose: 0, 6250, 12500 PPM IN DIET FOR 103 WK (STUDY DURATION: 2 YR)) was “inactive; negative”; the carcinogen call (Species: MOUSE, Strain/Sex: B6C3F1/MALE, Route: ORAL, Dose: 0, 6250, 12500 PPM IN DIET FOR 103 WK (STUDY DURATION: 2 YR), Dose: 0, 6250, 12500 PPM IN DIET FOR 103 WK (STUDY DURATION: 2 YR)) is “inactive; negative”; the carcinogen call (Species: RAT, Strain/Sex: F344/FEMALE, Route: ORAL, Dose: 0, 12500, 25000 PPM IN DIET FOR 103 WK (STUDY DURATION: 2 YR), Dose: 0, 12500, 25000 PPM IN DIET FOR 103 WK (STUDY DURATION: 2 YR)) is “inactive; negative”; the carcinogen call (Species: RAT, Strain/Sex: F344/MALE, Route: ORAL, Dose: 0, 12500, 25000 PPM IN DIET FOR 103 WK (STUDY DURATION: 2 YR), Dose: 0, 12500, 25000 PPM IN DIET FOR 103 WK (STUDY DURATION: 2 YR)) was “inactive; negative”.

For `O=[N+]([O-])c1cccc2ccccc12`, the carcinogen call (Species: MOUSE, Strain/Sex: B6C3F1/FEMALE, Route: ORAL, Dose: 0, 0.06, 0.12% OF DIET, Dose: 0, 0.06, 0.12% OF DIET) was “inactive; negative”; the carcinogen call (Species: MOUSE, Strain/Sex: B6C3F1/MALE, Route: ORAL, Dose: 0, 0.06, 0.12% OF DIET, Dose: 0, 0.06, 0.12% OF DIET) was “inactive; negative”; the carcinogen call (Species: RAT, Strain/Sex: F344/FEMALE, Route: ORAL, Dose: 0, 0.06, 0.18% OF DIET, Dose: 0, 0.06, 0.18% OF DIET) is “inactive; negative”; the carcinogen call (Species: RAT, Strain/Sex: F344/MALE, Route: ORAL, Dose: 0, 0.06, 0.18% OF DIET, Dose: 0, 0.06, 0.18% OF DIET) is “inactive; negative”.

For the compound `O=C1c2ccccc2C(=O)N1SC(Cl)(Cl)Cl`, the carcinogen call is, setting by setting: (Species: MOUSE, Strain/Sex: B6C3F1/FEMALE, Route: ORAL, Dose: 0, 1000, 5000, 10000 PPM IN DIET FOR 104 WK (STUDY DURATION: 104 WK), Dose: 0, 1000, 5000, 10000 PPM IN DIET FOR 104 WK (STUDY DURATION: 104 WK), Tumor Site: Type of Lesion: DUODENUM: CARCINOMA OR ADENOMA) “active; positive”; (Species: MOUSE, Strain/Sex: B6C3F1/MALE, Route: ORAL, Dose: 0, 1000, 5000, 10000 PPM IN DIET FOR 104 WK (STUDY DURATION: 104 WK), Dose: 0, 1000, 5000, 10000 PPM IN DIET FOR 104 WK (STUDY DURATION: 104 WK), Tumor Site: Type of Lesion: NON-GLANDULAR STOMACH: PAPILLOMA OR SQUAMOUS CELL CARCINOMA, DUODENUM: CARCINOMA OR ADENOMA) “active; positive”; (Species: Mouse, Strain/Sex: B6C3F1/Female (52/Group), Route: Oral, Dose: 0, 1000, 5000/3500, 10,000/7000 ppm (doses reduced at wk 21) of 88-89% folpet in diet for 2 yr, study duration 2 yr, Dose: 0, 1000, 5000/3500, 10,000/7000 ppm (doses reduced at wk 21) of 88-89% folpet in diet for 2 yr, study duration 2 yr, Tumor Site: Type of Lesion: Stomach: papilloma and squamous cell carcinoma combined (2, 2, 5, 7). Duodenum: adenomas and carcinomas (1, 2, 10, 19).) “active; positive”; (Species: Mouse, Strain/Sex: B6C3F1/Male (52/Group), Route: Oral, Dose: 0, 1000, 5000/3500, 10,000/7000 ppm (doses reduced at wk 21) of 88-89% folpet in diet for 2 yr, study duration 2 yr, Dose: 0, 1000, 5000/3500, 10,000/7000 ppm (doses reduced at wk 21) of 88-89% folpet in diet for 2 yr, study duration 2 yr, Tumor Site: Type of Lesion: Stomach: papilloma and squamous cell carcinoma combined (0, 2, 6, 3). Duodenum: adenomas and carcinomas (0, 4, 17, 25)) “active; positive”; (Species: Rat, Strain/Sex: Strain not specified in Department of Pesticides Regulation report /Female (60/Group), Route: Oral, Dose: 0, 200, 800, 3200 ppm of 89.5% folpet in diet for 105 wk, study duration 105 wk, Dose: 0, 200, 800, 3200 ppm of 89.5% folpet in diet for 105 wk, study duration 105 wk) “inactive; negative”; (Species: Rat, Strain/Sex: Strain not specified in Department of Pesticides Regulation report /Male (60/Group), Route: Oral, Dose: 0, 200, 800, 3200 ppm of 89.5% folpet in diet for 105 wk, study duration 105 wk, Dose: 0, 200, 800, 3200 ppm of 89.5% folpet in diet for 105 wk, study duration 105 wk) “inactive; negative. increased incidence of thyroid tumors judged by reviewers as equivocal”.

As for `Nc1ccc(/C=C/c2ccccc2)cc1`, the carcinogen call reads like this: (Species: RAT, Strain/Sex: HOLTZMAN/FEMALE, Route: ORAL, Dose: 0, 0.0038% IN DIET FOR 13 WK BEGINNING AT WEANING (STUDY DURATION: 40 WK), Tumor Site: Type of Lesion: EAR DUCT GLAND: CARCINOMA) “active; positive”; (Species: RAT, Strain/Sex: HOLTZMAN/FEMALE, Route: SUBCUTANEOUS, Dose: 0. 5.3 UMOL SUSPENDED IN 0.2 ML TRICAPRYLIN 1/WK FOR 5 WK (STUDY DURATION: 10 MO), Tumor Site: Type of Lesion: MAMMARY GLAND: CARCINOMA) “active; positive”.

In the case of `CC1(C)[C@H](C(=O)O[C@H](C#N)c2cccc(Oc3ccccc3)c2)[C@@H]1C=C(Br)Br`, the carcinogen call was “inactive; negative” (Species: MOUSE, Strain/Sex: C57BL/FEMALE, Route: INTRAGASTRIC, Dose: 0, 1, 4, 8 MG/KG IN ARACHIS OIL 5 D/WK FOR 104 WK (STUDY DURATION: 120 WK), Dose: 0, 1, 4, 8 MG/KG IN ARACHIS OIL 5 D/WK FOR 104 WK (STUDY DURATION: 120 WK)); “inactive; negative” (Species: MOUSE, Strain/Sex: C57BL/MALE, Route: INTRAGASTRIC, Dose: 0, 1, 4, 8 MG/KG IN ARACHIS OIL 5 D/WK FOR 104 WK (STUDY DURATION: 120 WK), Dose: 0, 1, 4, 8 MG/KG IN ARACHIS OIL 5 D/WK FOR 104 WK (STUDY DURATION: 120 WK)); “inactive; negative” (Species: MOUSE, Strain/Sex: SWISS/MALE, FEMALE, Route: DERMAL, Dose: 0, 1, 2, 4 MG/KG BW IN 200 µL ACETONE 3/WK FOR 32 WK (STUDY DURATION: 32 WK), Dose: 0, 1, 2, 4 MG/KG BW IN 200 µL ACETONE 3/WK FOR 32 WK (STUDY DURATION: 32 WK)); “inactive; negative” (Species: Mouse, Strain/Sex: Crl:CD-1(ICR)BR/Female (50/Group), Route: Oral, Dose: 0, 10, 100, 1000, 2000 ppm in feed for 97 wk, Dose: 0, 10, 100, 1000, 2000 ppm in feed for 97 wk); “inactive; negative” (Species: Mouse, Strain/Sex: Crl:CD-1(ICR)BR/Male (50/Group), Route: Oral, Dose: 0, 10, 100, 1000, 2000 ppm in feed for 97 wk, Dose: 0, 10, 100, 1000, 2000 ppm in feed for 97 wk); “active; positive” (Species: RAT, Strain/Sex: BDVI/FEMALE, Route: INTRAGASTRIC, Dose: 0, 3, 6 MG/KG IN ARACHIS OIL 5 D/WK FOR 104 WK (STUDY DURATION: 120 WK), Dose: 0, 3, 6 MG/KG IN ARACHIS OIL 5 D/WK FOR 104 WK (STUDY DURATION: 120 WK), Tumor Site: Type of Lesion: THYROID: ADENOMA). Further, the carcinogen call reads like this: (Species: RAT, Strain/Sex: BDVI/MALE, Route: INTRAGASTRIC, Dose: 0, 3, 6 MG/KG IN ARACHIS OIL 5 D/WK FOR 104 WK (STUDY DURATION: 120 WK), Dose: 0, 3, 6 MG/KG IN ARACHIS OIL 5 D/WK FOR 104 WK (STUDY DURATION: 120 WK), Tumor Site: Type of Lesion: THYROID: ADENOMA) “active; positive”; (Species: Rat, Strain/Sex: Crl:CD(SD)BR/Female (50/Group), Route: Oral, Dose: 0, 25, 125, 500, 800 ppm in feed for 2 yr, Dose: 0, 25, 125, 500, 800 ppm in feed for 2 yr) “inactive; negative”; (Species: Rat, Strain/Sex: Crl:CD(SD)BR/Male (50/Group), Route: Oral, Dose: 0, 25, 125, 500, 800 ppm in feed for 2 yr, Dose: 0, 25, 125, 500, 800 ppm in feed for 2 yr) “inactive; negative”.

`CC(C)(Oc1ccc(C2CC2(Cl)Cl)cc1)C(=O)O` (stereo not given): the carcinogen call (Species: RAT, Strain/Sex: F344/MALE, Route: ORAL, Dose: 10 MG/KG IN DIET FOR 60 WK, Tumor Site: Type of Lesion: LIVER: HEPATOCELLULAR CARCINOMA) was “active; positive”.

With `CNC(=O)Oc1cccc2c1OC(C)(C)O2`, the carcinogen call by setting is: (Species: Mouse, Strain/Sex: CD-1/Female, Route: Oral, Dose: 0, 50, 250, 1250 ppm in diet for 94 wks, Dose: 0, 50, 250, 1250 ppm in diet for 94 wks) “inactive; negative; purity 92.7%”; (Species: Mouse, Strain/Sex: CD-1/Male, Route: Oral, Dose: 0, 50, 250, 1250 ppm in diet for 89 wks, Dose: 0, 50, 250, 1250 ppm in diet for 89 wks) “inactive; negative; purity 92.7%”.

Turning to `O=P([O-])([O-])[O-].O=P([O-])([O-])[O-].[Pb+2].[Pb+2].[Pb+2]`, the carcinogen call (Species: RAT, Strain/Sex: ALBINO, Route: SUBCUTANEOUS, Dose: 20 MG 1/WK FOR UP TO 16 MO (TOTAL DOSE 40-760 MG/RAT), Tumor Site: Type of Lesion: KIDNEY: ADENOMA, PAPILLOMA, CYSTADENOMA, CARCINOMA) is “active; positive” and the carcinogen call (Species: RAT, Strain/Sex: STRAIN-CB/MALE, Route: SUBCUTANEOUS/INTRAPERITONEAL, Dose: TOTAL DOSES 29, 145, 450 MG, Dose: TOTAL DOSES 29, 145, 450 MG, Tumor Site: Type of Lesion: KIDNEY: ADENOMA, ADENOCARCINOMA) was “active; positive”.
